The values below come from paper PMC6343074, “New Irreversible α‐L‐Iduronidase Inhibitors and Activity‐Based Probes” (Chemistry (Weinheim an Der Bergstrasse, Germany), 2018).

In experiment [1] the target is T1, rIDUA (human recombinant α-L-iduronidase, Aldurazyme) (Homo sapiens, UniProt P35475).
T1 construct: gene IDUA; therapeutic recombinant enzyme (Aldurazyme, Genzyme), secreted lysosomal glycoprotein; chymotryptic active-site peptide Asn297-Leu303 with nucleophile Glu299
T1 sequence (P35475 28-653): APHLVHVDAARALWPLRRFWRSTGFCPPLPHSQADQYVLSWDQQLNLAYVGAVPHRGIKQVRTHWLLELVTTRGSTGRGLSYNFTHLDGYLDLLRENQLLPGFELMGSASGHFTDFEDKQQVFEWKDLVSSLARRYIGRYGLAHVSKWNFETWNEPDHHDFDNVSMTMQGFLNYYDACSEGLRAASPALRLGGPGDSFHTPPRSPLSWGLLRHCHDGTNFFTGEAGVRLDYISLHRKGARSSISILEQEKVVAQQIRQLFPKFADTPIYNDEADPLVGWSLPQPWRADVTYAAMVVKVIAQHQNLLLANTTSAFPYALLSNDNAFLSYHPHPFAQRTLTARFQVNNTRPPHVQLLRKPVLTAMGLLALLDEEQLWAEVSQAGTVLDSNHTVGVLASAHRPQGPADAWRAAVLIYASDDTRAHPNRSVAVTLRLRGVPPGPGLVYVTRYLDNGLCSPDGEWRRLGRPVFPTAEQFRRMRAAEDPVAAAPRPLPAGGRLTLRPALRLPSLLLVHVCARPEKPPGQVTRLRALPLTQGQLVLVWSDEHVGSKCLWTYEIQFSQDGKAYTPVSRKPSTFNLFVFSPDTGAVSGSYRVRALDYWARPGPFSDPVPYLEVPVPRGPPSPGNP
Kind of experiment: fluorogenic 4-MU-IdoA activity assay. Format: biochemical. The note with it: pH 4.5, 60 min incubation, competition with 4-MU-IdoA; covalent; read-out: apparent IC50.

Experiment [2] has as its target T1, rIDUA (human recombinant α-L-iduronidase, Aldurazyme). Kind of experiment: biochemical. Details: residual rIDUA activity after 1 h preincubation, fluorogenic 4-MU-alpha-L-IdoA substrate, pH 4.5, apparent IC50. As for the experimental part:
Apparent IC50 values of inhibitors and ABPs on recombinant human iduronidase and cell lysates Inhibitors and ABPs were diluted at various concentrations in 12.5 µL assay buffer and incubated with 12.5 µL rIDUA (5.8 ng, or 70 fmol) or fibroblast lysates (50 µg protein), both diluted in assay buffer, at 37°C for 1 h (rIDUA) or 4 h (fibroblasts lysates), at 1% (v/v) DMSO concentration. This was followed by iduronidase activity assay (30 min incubation time) described in the previous section. The detected 4-MU fluorescence at each concentration for each compound were normalized to the fluorescence from the control sample without inhibitor, and data were fitted with [inhibitor] vs response – variable slope (four parameters) function in Graphpad Prism 7.0 software to obtain apparent IC50 values. Iduronidase activity assay using 4-MU-α-L-IdoA as substrate Samples containing enzyme were diluted in assay buffer (150 mM citrate/Na2HPO4, pH 4.5, supplemented with 0.1% (v/v) Triton X-100, 0.15 M NaCl, 33 mM CaCl2, 33 mM MgCl2), and load onto a black flat-bottom 96-well plate (Greiner) in triplicates of 25 µL per well. Negative controls (blank) were prepared by substituting enzyme samples with buffer. For reaction, samples were added with 25 µL of 360 µM 4-MU-α-L-IdoA1 (prepared in assay buffer supplemented with 0.1 % (w/v) bovine serum albumin (BSA)), and incubated at 37°C for 30 min to 4h. […]

Some results are limits rather than exact numbers.

`[N-]=[N+]=NCCCCCCCCN1[C@@H]2[C@@H](C(=O)O)[C@@H](O)[C@H](O)[C@@H](O)[C@@H]21` (stereo partly drawn) [compound 1, inhibitor 1]: the IC50 (usually the concentration that gives 50% inhibition) in experiment [1] was determined as 40.6 ± 17 µM.

As to `OC[C@H]1[C@@H](O)[C@H](O)[C@@H](O)[C@@H]2N[C@H]12` [compound 11, aziridine 11], the IC50 in experiment [2] is above 100 µM. As for `[N-]=[N+]=NCCCCCCCCN1[C@@H]2[C@@H](CO)[C@@H](O)[C@H](O)[C@@H](O)[C@@H]21` (stereo partly drawn) [compound 12, alkyl aziridine 12], the IC50 in experiment [1] turned out to be 12.2 ± 3.24 µM.
